Results as given in patent publication US20090181975A1, “NEBIVOLOL IN THE TREATMENT OF SEXUAL DYSFUNCTION” (FOREST LABORATORIES HOLDINGS LIMITED, priority 2008, published 2009).

How the values were obtained:
anesthetized rats = test: Mean arterial pressure (MAP) and heart rate (HR) in anesthetized rats; assay type: in vivo, rat (Sprague-Dawley)
Description: To determine blood pressure and heart rate, Sprague-Dawley rats (250-400 g) were anesthetized with ketolar and diazepam. The right carotid artery was catheterized for constant blood pressure and heart rate measurement by means of a pressure transducer connected to a PowerLab data acquisition system (ADInstruments). The left external jugular vein was catheterized for saline or drug infusion. 3 mg/kg nebivolol (n=6) or vehicle (50% glycofurol; n=4) was administered intravenously in anesthetized rats and MAP and HR were measured. […] The effect of nebivolol in combination with the type 5 phosphodiesterase (PDE-5) inhibitor sildenafil on hypotension and heart rate was studied in rats using the methods described above.

[1] = test system: nitrite plus nitrate (NOx) in rat serum; test: Serum nitrite plus nitrate (NOx) by Griess colorimetric method; assay type: in vivo; conditions: for effect on serum NOx concentration: i.v.: nebivolol 3 mg/kg, atenolol 3 mg/kg, vs vehicle
Description: Total NO derivatives (nitrites plus nitrates) were measured in pre-filtered (10,000 MW pore size) serum samples from the studied rats by the Griess colorimetric method, using a commercial kit for nitrite and nitrate determination from Cayman Chemical Co. (Ann Arbor, Mich.). Serum concentrations of NOx were determined 10 minutes after nebivolol administration.

[2] = test system: human corpus cavernosum (HCC) strips; test: Relaxation of human corpus cavernosum strips contracted with U46619; assay type: cell-based; conditions: for relaxation of HCC strips by cumulative addition: U46619 1-3 nM, nebivolol 1 nM to 0.1 mM; for relaxation of HCC strips by cumulative addition / effect on sildenafil-induced relaxation of HCC strips: sildenafil 1 nm to 10 μM; for effect on acetylcholine-induced endothelium-dependent relaxation of HCC strips: metoprolol 1 μM, nebivolol 0.3 μM; for effect on acetylcholine-induced endothelium-dependent relaxation of HCC strips / effect on sildenafil-induced relaxation of HCC strips: atenolol 1 μM; for effect on sildenafil-induced relaxation of HCC strips: nebivolol at 1 and 10 μM
Description: Specimens of human corpus cavernosum were obtained from organ donors and from impotent men at the time of penile prosthesis implantation. Tissues were placed in ice-cold M-400 solution (pH 7.4; 400 mOsm/kg, composition in w/v: 4.19% manitol, 0.2% KH2PO4, 0.97% K2HPO4.3H2O, 0.11% KCl and 0.08% NaHCO3) at the time of removal and transported to the laboratory for utilization within 16 h. Strips of human corpus cavemosum were mounted on force transducers in 8 ml organ baths (37° C.) containing physiological salt solution (PSS) continuously bubbled with 95% O2/5% CO2 mixture to maintain a pH of 7.4. Strips were contracted with the thromboxane receptor agonist U46619 (1-3 nM) and relaxation responses were evaluated by cumulative additions of compounds to the chambers.

diabetic rats = test: Erectile responses to cavernosal nerve electrical stimulation (CNES) in STZ-diabetic rats; assay type: in vivo, rat (Sprague-Dawley); conditions: for erectile responses after sildenafil compared with non diabetic rats treated with sildenafil: 10 days treatment, then sildenafil 0.3 mg/kg i.v.
Description: Male Sprague-Dawley rats were used as a model for this study. Diabetes was induced by a single injection of streptozotocin (STZ, 60 mg/kg; i.p.) dissolved in 0.1 M citric acid/trisodic citrate buffer (pH 4-4.5) and was assessed by glycemia determination 72 h after induction. Animals were kept, with free access to food and water, for 8 weeks before experimental assays. Eight weeks after induction of diabetes, rats show reduced erectile responses (Angulo et al., Naunyn-Schmiedeberg's Arch Pharmacol, 358(5), 529-37, 1998; Angulo et al., J. Sex Med., 2, 341-346, 2005). Blood glucose concentration was determined each week and just before the experiment. Insulin levels were not determined. Rats were anesthetized with ketolar and diazepam. The surgical procedure consisted of dissection and isolation of the right cavernous nerve through an abdominal midline incision and exposure of penile crura through a transverse perineal incision. Intracavernosal pressure (ICP) measurements were permitted by insertion of a 23-gauge needle into the right crus. The right carotid artery and left external jugular vein were catheterized for constant blood pressure measurement and saline infusion, respectively. Electrostimulation was performed with a delicate platinum bipolar hook electrode connected to a stimulator and current amplifier. The parameters of electrical stimulation consisted of pulses with a duration of 0.3 ms and 1.5 mA of current intensity for 1 min. Frequency-response curves were performed by applying stimulation at 1, 3 and 10 Hz with a lapse of 3 min between each increase of frequency (Angulo et al., J. Sex Med., 2, 341-346, 2005). […] After this period of treatment, the diabetic rats were anesthetized and ICP responses to electrical stimulation were evaluated. After an equilibration period, the PDE5 inhibitor sildenafil (0.3 mg/kg) or the vehicle (25% glycofurol) was intravenously administered. Forty five minutes later, ICP responses were again determined

[3] = test system: nitrite plus nitrate (NOx) in rat serum; test: Serum NOx in STZ-diabetic rats; assay type: in vivo, rat (Sprague-Dawley); conditions: for effect on NOx content in sera from diabetic rats: 3 and 10 mg/kg/day s.c. for 10 days
Description: Male Sprague-Dawley rats were used as a model for this study. Diabetes was induced by a single injection of streptozotocin (STZ, 60 mg/kg; i.p.) dissolved in 0.1 M citric acid/trisodic citrate buffer (pH 4-4.5) and was assessed by glycemia determination 72 h after induction. Animals were kept, with free access to food and water, for 8 weeks before experimental assays. Eight weeks after induction of diabetes, rats show altered in vivo vascular function (Angulo et al., Naunyn-Schmiedeberg's Arch Pharmacol, 358(5), 529-37, 1998) and reduced erectile responses (Angulo et al., J. Sex Med., 2, 341-346, 2005). Blood glucose concentration was determined each week and just before the experiment. Insulin levels were not determined. Total NO derivatives (nitrites plus nitrates) were measured in pre-filtered (10,000 MW pore size) serum samples from the studied rats by the Griess colorimetric method, using a commercial kit for nitrite and nitrate determination from Cayman Chemical Co. (Ann Arbor, Mich.). See […] et al., Methods Enzymol., 268, 142-151, 1996. […] After 10 days treatment, diabetic rats were anesthetized and erectile responses to cavernosal nerve electrical stimulation (CNES) were determined. After an equilibration period, the PDE-5 inhibitor sildenafil (0.3 mg/kg) or the vehicle (25% glycofurol) was intravenously administered. Forty five minutes later, erectile responses to CNES were again evaluated, and 5 min after CNES application, blood was collected for obtaining plasma and serum, and the penis was excised. Serum samples were immediately frozen until determinations of NOx and TBARS. Plasma and penile tissues were immediately frozen until determinations of cGMP.

cGMP in penile tissue = test: Penile tissue cGMP in STZ-diabetic rats; assay type: in vivo, rat (Sprague-Dawley); conditions: for cGMP content in penile tissue from diabetic rats after administration of sildenafil: then sildenafil 0.3 mg/kg i.v.
Description: Male Sprague-Dawley rats were used as a model for this study. Diabetes was induced by a single injection of streptozotocin (STZ, 60 mg/kg; i.p.) dissolved in 0.1 M citric acid/trisodic citrate buffer (pH 4-4.5) and was assessed by glycemia determination 72 h after induction. Animals were kept, with free access to food and water, for 8 weeks before experimental assays. Eight weeks after induction of diabetes, rats show altered in vivo vascular function (Angulo et al., Naunyn-Schmiedeberg's Arch Pharmacol, 358(5), 529-37, 1998) and reduced erectile responses (Angulo et al., J. Sex Med., 2, 341-346, 2005). Blood glucose concentration was determined each week and just before the experiment. Insulin levels were not determined. Plasma samples were collected, immediately frozen and stored at −80° C. until extraction for cyclic nucleotide assay. Samples were then precipitated in ethanol, centrifuged and the supernatant was dried under a nitrogen stream. Penile tissues were rapidly immersed in liquid nitrogen and were stored at −80° C. until extraction for cyclic nucleotide assay. […] After 10 days treatment, diabetic rats were anesthetized and erectile responses to cavernosal nerve electrical stimulation (CNES) were determined. After an equilibration period, the PDE-5 inhibitor sildenafil (0.3 mg/kg) or the vehicle (25% glycofurol) was intravenously administered. Forty five minutes later, erectile responses to CNES were again evaluated, and 5 min after CNES application, blood was collected for obtaining plasma and serum, and the penis was excised. Serum samples were immediately frozen until determinations of NOx and TBARS. Plasma and penile tissues were immediately frozen until determinations of cGMP.

[4] = 3 mg/kg i.v., vs vehicle (50% glycofurol)
[5] = 3 mg/kg/day s.c. for 10 days, sildenafil 0.3 mg/kg i.v.
[6] = 10 mg/kg/day s.c. for 10 days, sildenafil 0.3 mg/kg i.v., atenolol: measured as AUC of ICP
[7] = nebivolol 1 mg/kg i.v., pre-treatment sildenafil 0.3 mg/kg i.v.
[8] = nebivolol 3 mg/kg i.v., L-NAME 3 mg/kg, ODQ 1 mg/kg, propranolol 1 mg/kg, sildenafil 0.3 mg/kg i.v.

In the case of `OC(CNCC(O)C1CCc2cc(F)ccc2O1)C1CCc2cc(F)ccc2O1` (racemic) [nebivolol, α,α′-iminobis(methylene)bis[6-fluoro-2-chromanmethanol]], the “effect on blood pressure” value (anesthetized rats; 1 mg/kg i.v.) is reported as “hypotensive and bradycardic effects of moderate intensity”, the “effect on heart rate” value (anesthetized rats; 1 mg/kg i.v.) is reported as “hypotensive and bradycardic effects of moderate intensity” and the “effect on heart rate (HR)” value (anesthetized rats; [4]) is reported as “significant reduction of heart rate”. For the same compound, the “effect on mean arterial pressure (MAP)” value (anesthetized rats; [4]) was “significant hypotensive effect”, the “increase of the concentration of NOx in serum compared to the vehicle” value ([1]; 3 mg/kg i.v.) was “three-fold increase” and the “concentration of NOx in serum” value ([1]; 3 mg/kg i.v., 10 minutes after administration, vehicle 4.9±0.4, p<0.05) was 15.4 ± 2.8 µM. For the same compound, the “effect on serum NOx concentration” value ([1]; sildenafil 0.3 mg/kg) was “significantly higher than after vehicle”, the “relaxation of HCC strips by cumulative addition” value [2] was “modest relaxant effect” and the “effect on acetylcholine-induced endothelium-dependent relaxation of HCC strips” value [2] was “not significantly modified”. The “effect on sildenafil-induced relaxation of HCC strips” value [2] was “significantly potentiated”, the “effect on acetylcholine-induced (endothelium-dependent) relaxation of HCC” value ([2]; pre-treatment with nebivolol 10 μM) was “potentiated” and the “erectile effect of 3 mg/kg/day dose compared with 10 mg/kg/day dose” value (diabetic rats; 3 mg/kg/day for 10 days) was “equally as effective as the 10 mg/kg/day dose”. The “potentiation by sildenafil of erectile responses after 10 days treatment” value (“potentiation by sildenafil” below) (diabetic rats; [5]) was “No significant potentiation”, the “potentiation by sildenafil” value (diabetic rats; [6]) was “No significant potentiation” and the “effect on erectile responses in diabetic rats in the absence of the PDE5 inhibitor” value (diabetic rats; 3 and 10 mg/kg/day for 10 days) was “significantly enhanced”. The “erectile responses in treated diabetic rats compared with non diabetic rats” value (diabetic rats; 3 and 10 mg/kg/day for 10 days, no PDE5 inhibitor) was “not significantly different from those achieved by non diabetic rats”, the “erectile responses after sildenafil compared with non diabetic rats treated with sildenafil” value (diabetic rats) was “not significant differences” and the “effect on NOx content in sera from diabetic rats” value [3] was “significantly increased”. The “NOx effect, comparison of doses” value ([3]; 3 vs 10 mg/kg/day) was “more marked with the 3 mg/kg/day dose”, the “effect on cGMP content in penile tissue from diabetic rats” value (cGMP in penile tissue; 3 and 10 mg/kg/day for 10 days) was “statistically significant increase” and the “cGMP content in penile tissue from diabetic rats after administration of sildenafil” value (cGMP in penile tissue; 3 and 10 mg/kg/day for 10 days) was “significantly higher than those obtained in diabetic rats treated with vehicle”.
With `CC(C)NCC(O)COc1ccc(CC(N)=O)cc1` (centres unmarked) [atenolol] the “effect on serum NOx concentration” value ([1]; sildenafil 0.3 mg/kg) was “did not significantly alter”, the “effect on acetylcholine-induced endothelium-dependent relaxation of HCC strips” value [2] was “not significantly modified” and the “effect on sildenafil-induced relaxation of HCC strips” value [2] was “not affected”. For the same compound, the “potentiation by sildenafil” value (diabetic rats; [5]) was “did not reach statistical significance”, the “effect of the higher dose on erectile function in diabetic rats” value (diabetic rats; 10 mg/kg/day for 10 days) was “did not positively affect” and the “potentiation by sildenafil” value (diabetic rats; [6]) was “reached statistical significance”. For the same compound, the “erectile responses after sildenafil compared with non diabetic rats treated with sildenafil” value (diabetic rats) was “significantly reduced erectile responses”, the “effect on NOx content in sera from diabetic rats” value [3] was “did not affect” and the “cGMP content in penile tissue from diabetic rats after administration of sildenafil” value (cGMP in penile tissue; 3 and 10 mg/kg/day for 10 days) was “did not modify”.
With `CCCc1nn(C)c2c(=O)[nH]c(-c3cc(S(=O)(=O)N4CCN(C)CC4)ccc3OCC)nc12` [sildenafil] the “effect on blood pressure drop caused by nebivolol” value (anesthetized rats; [7]) was “significantly enhanced”, the “effect on reduction of heart rate caused by nebivolol” value (anesthetized rats; [7]) was “not modified” and the “effect on heart rate reduction caused by nebivolol” value (anesthetized rats; [8]) was “did not significantly alter”. The “effect on hypotension caused by nebivolol” value (anesthetized rats; [8]) was “did not significantly alter”, the “effect on serum NOx concentration” value ([1]; sildenafil 0.3 mg/kg) was “did not alter NOx levels” and the “effect on nebivolol-induced increment in serum NOx” value ([1]; nebivolol 3 mg/kg i.v., L-NAME 3 mg/kg, ODQ 1 mg/kg, propranolol 1 mg/kg, sildenafil 0.3 mg/kg) was “did not alter NOx levels or affect nebivolol-induced effects”. The “relaxation of HCC strips by cumulative addition” value [2] was “concentration dependent relaxations”, the “effect on erectile responses to CNES in diabetic rats” value (diabetic rats; sildenafil 0.3 mg/kg i.v., vehicle-treated diabetic rats) was “potentiation of erectile responses” and the “effect on serum NOx content in rats” value ([3]; sildenafil 0.3 mg/kg i.v.) was “did not modify”. For the same compound, the “influence on the effects of nebivolol and atenolol on NOx content in sera from diabetic rats” value ([3]; sildenafil 0.3 mg/kg i.v.) was “not influenced” and the “effect on cGMP levels in penile tissue from diabetic and non diabetic rats” value (cGMP in penile tissue; sildenafil 0.3 mg/kg i.v.) was “produced an increase”.
